This passage reports IC50 results from US7402585B2, “Substituted quinazoline derivatives as inhibitors of aurora kinases” (AstraZeneca AB, priority 2001, dated 2008).

The target of one assay is T1, Aurora-A kinase (Homo sapiens, UniProt O14965).
T1 construct: 6His (with spacer region and rTEV protease cleavage site from pFastBac HTc) (N); made in house; host or cells: Spodoptera frugiperda Sf21 insect cells (baculovirus, pFastBac HTc)
T1 sequence (O14965 1-403): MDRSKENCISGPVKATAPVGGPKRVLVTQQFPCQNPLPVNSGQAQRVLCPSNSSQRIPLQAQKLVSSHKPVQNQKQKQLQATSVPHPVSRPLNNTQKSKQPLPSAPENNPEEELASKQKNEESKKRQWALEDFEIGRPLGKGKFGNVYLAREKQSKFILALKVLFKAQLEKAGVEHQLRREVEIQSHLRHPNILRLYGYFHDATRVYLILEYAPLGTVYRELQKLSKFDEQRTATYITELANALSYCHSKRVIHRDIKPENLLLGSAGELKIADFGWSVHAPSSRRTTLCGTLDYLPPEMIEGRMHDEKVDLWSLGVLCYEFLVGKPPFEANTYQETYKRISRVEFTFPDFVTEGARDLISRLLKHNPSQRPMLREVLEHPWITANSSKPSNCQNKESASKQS
Description: In vitro Aurora-A kinase inhibition test. Type of assay: biochemical.

The next assay relates to SW620 cells. Description: In vitro cell proliferation assay (BrdU incorporation). To be noted: SW-620; SW620 human tumour cell line, 48 hours with compound, 2 hour BrdU labelling; read-out: concentration active (50% inhibition of BrdU incorporation). The class given is cell-based. An excerpt: (c) In Vitro Cell Proliferation Assay
This and other assays can be used to determine the ability of a test compound to inhibit the growth of adherent mammalian cell lines, for example the human tumour cell line SW620 (ATCC CCL-227). This assay determines the ability of at test compound to inhibit the incorporation of the thymidine analogue, 5′-bromo-2′-deoxy-uridine (BrdU) into cellular DNA. SW620 or other adherent cells were typically seeded at 1×10^5 cells per well in L-15 media (GIBCO) plus 5% foetal calf serum, 1% L-glutamine (100 μl/well) in 96 well tissue culture treated 96 well plates (Costar) and allowed to adhere overnight. […] The optical density of the wells was then determined at 690 nm wavelength using a Titertek Multiscan plate reader. […]

For the compound `COc1cc2c(Nc3cc(CC(=O)Nc4cccc(F)c4)[nH]n3)ncnc2cc1OCCCN(C)CCO` [Compound 13, N-(3-fluorophenyl)-2-{3-[(7-{3-[(2-hydroxyethyl)(methyl)amino]propoxy}-6-methoxyquinazolin-4-yl)amino]-1H-pyrazol-5-yl}acetamide], the values for the IC50 against Aurora-A kinase and in the assay on SW620 cells were 1 nM and 79 nM, respectively.

Take `COc1cc2c(Nc3cc(CC(=O)Nc4cccc(F)c4)[nH]n3)ncnc2cc1OCCCN1CCC[C@H]1CO` [Compound 8, N-(3-fluorophenyl)-2-{3-[(7-{3-[(2S)-2-(hydroxymethyl)pyrrolidin-1-yl]propoxy}-6-methoxyquinazolin-4-yl)amino]-1H-pyrazol-5-yl}acetamide]: the IC50 against Aurora-A kinase turned out to be 10 nM; with SW620 cells, 86 nM.
